Test results: the NIST ThermoML archive (doi:10.1016/j.fluid.2008.09.010)
Numbers after ± are expanded uncertainties.

Conditions: Liquid; Ebulliometric method (Recirculating still)

Normal boiling temperature [°C]	Structure (SMILES)
118 ± 0.2	CC(=O)O [acetic acid]
188.77 ± 0.2	C[S+](C)[O-] [dimethyl sulfoxide]
152.6 ± 0.2	CN(C)C=O [dimethylformamide]
